# Patent US9637490B2, “Antifungal 5,6-dihydro-4-[(difluoroethyl)phenyl]-4H-pyrrolo[1,2-α][1,4]benzodiazepine and 4-(difluoroethyl)phenyl-6H-pyrrolo[1,2-α][1,4]benzodiazepine derivatives” (Janssen Pharmaceutica NV, priority 2010, dated 2017)
# Experiments:
# [1] = system: Cryptococcus neoformans B66663; experiment: Antifungal activity in vitro (resazurin susceptibility screen), Inf. F; type: cell-based; settings: Cryptococcus neoformans, B66663, Cryptococcus neoformans B66663; 37 °C, 24 hours, resa time 4 hours
# How it was run: (§1)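 Compounds were tested in 2- or 4-fold serial dilution up to 64 μM against cryopreserved isolates (10^3 cfu/well) in RPMI-1640 with L-glutamine, 2% glucose and MOPS pH 7.0. Incubation ran 24 h at 37° C for yeasts to a week or more at 27° C for dermatophytes; growth was read by resazurin fluorescence (ex 550/em 590 nm).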
# [2] = system: Aspergillus fumigatus B42928; experiment: Antifungal activity in vitro (resazurin susceptibility screen), Inf. E; type: cell-based; settings: Aspergillus fumigatus, B42928, Aspergillus fumigatus B42928; 27 °C, 48 hours, resa time 17 hours
# How it was run: as §1
# [3] = system: Scedosporium apiospermum IHEM3817; experiment: Antifungal activity in vitro (resazurin susceptibility screen), Inf. H; type: cell-based; settings: Scedosporium apiospermum, IHEM3817, Scedosporium apiospermum IHEM3817; 37 °C, 48 hours, resa time 17 hours
# How it was run: as §1
# [4] = system: Microsporum canis (strain B68128); experiment: Test D.4.1: activity against M. canis in guinea-pigs after oral treatment for 7 consecutive days; type: in vivo; set-up: key to semi-quantitative lesion score (mean): lesion score 0–3.5 by severity and size of lesion
# Description: (§2) The animals used in the tests described below were female Guinea pigs (Duncan-Hartley, Charles River, 200 g). These animals were kept in groups of 2 or 3 in cages of 56×33×20 cm^3. Food pellets (Carfil Quality) and water were available ad libitum in addition to a small daily amount of hay. Standard husbandry conditions were adopted: room temperature: 22° C., humidity level: 60% and a day-night cycle of 12 h.
# (§3) For the preparation of inoculums, Microsporum canis (strain B68128) was grown on Sabouraud Dextrose Agar (SDA) plates for at least one week (7-10 days) before infection (27° C.). On the day of infection, spores were harvested by adding 4-5 ml sterile water on the plate and suspending the infectious material with a bend Pasteur pipette. From the recollected fluid, 10 μl was added to a KOVA counting chamber for determination of the number of spores in 1 square (average of several squares). If needed, additional dilutions (10× or 100×) were prepared. The average number of spores in one square×dilution×90.000=cfu/ml. An inoculum of 1×10^7 cfu/ml was prepared in a honey-water mixture (50%-50%).
# (§4) In the tests described below, semi-quantitative lesion scores were given based on different clinical parameters. Scores between 0 and 3.5 were assigned based on the severity and size of the lesion. The criteria are listed in detail in Table 6.
# The dorsum of the guinea pigs was shaved and further depilated for 3 minutes with Veet® creme before scarification with a steel brush. An inoculum of 10^6 cfu in 150 μl (75 mQ+75 μl honey) was applied to the wound using a micropipette with disposable tips. The animal was kept immobilized until the inoculum had completely dried. […]
# vehicle: methocel 0.5%, Tween 80® (polysorbate 80), demineralised water reference compound: itraconazole at 6.25 mg/ml test compounds: prepared at 25 mg/ml, subsequently further diluted
# Oral treatment (gavage 0.16 ml/100 g once daily) was started about 2 hours before infection and continued once daily for 7 consecutive days. The animals were weighed after 3 days of treatment to adjust for the dose.
# Developments of lesions were evaluated following the semi-quantitative lesion scoring system (see Table 6) on days 3, 5, 7, 10, 12, 14, 17 and 20. The results are show in Table 7 (“DPI” means days post infection). Reported values in Table 7 are mean values.
# Microsporum canis B68128 = experiment: Antifungal activity in vitro (resazurin susceptibility screen), Inf. B; type: cell-based; settings: Microsporum canis, B68128, Microsporum canis B68128; 27 °C, 9 days, resa time 24 hours
# How it was run: as §1
# [5] = system: Candida parapsilosis B66126; experiment: Antifungal activity in vitro (resazurin susceptibility screen), Inf. D; type: cell-based; settings: Lodderomyces parapsilosis, B66126, Candida parapsilosis B66126; 37 °C, 24 hours, resa time 4 hours
# How it was run: as §1
# [6] = system: Trichophyton rubrum B68183; experiment: Antifungal activity in vitro (resazurin susceptibility screen), Inf. C; type: cell-based; settings: Trichophyton rubrum, B68183, Trichophyton rubrum B68183; 27 °C, 7 days, resa time 24 hours
# How it was run: as §1
# [7] = system: Trichophyton mentagrophytes B70554; experiment: Antifungal activity in vitro (resazurin susceptibility screen), Inf. G; type: cell-based; settings: Trichophyton mentagrophytes, B70554, Trichophyton mentagrophytes B70554; 27 °C, 7 days, resa time 24 hours
# How it was run: as §1
# [8] = system: Scedosporium prolificans IHEM21157; experiment: Antifungal activity in vitro (resazurin susceptibility screen), Inf. I; type: cell-based; settings: Lomentospora prolificans, 37 °C, 48 hours, resa time 17 hours
# How it was run: as §1
# [9] = system: Sporothrix schenkii B62482; experiment: Antifungal activity in vitro (resazurin susceptibility screen), Inf. A; type: cell-based; settings: Sporothrix, B62482, Sporothrix schenkii B62482; 27 °C, 4 days, resa time 24 hours
# How it was run: as §1
# [10] = system: Mucor circinelloides IHEM21105; experiment: Antifungal activity in vitro (resazurin susceptibility screen), Inf. L; type: cell-based; settings: 27 °C, 48 hours, resa time 17 hours
# How it was run: as §1
# Rhizopus oryzae IHEM5223 = experiment: Antifungal activity in vitro (resazurin susceptibility screen), Inf. J; type: cell-based; settings: Rhizopus arrhizus, 37 °C, 24 hours, resa time 6 hours
# How it was run: as §1
# [11] = system: Rhizomucor miehei IHEM13391; experiment: Antifungal activity in vitro (resazurin susceptibility screen), Inf. K; type: cell-based; settings: Rhizomucor miehei, IHEM13391, Rhizomucor miehei IHEM13391; 37 °C, 48 hours, resa time 17 hours
# How it was run: as §1
# [12] = system: Microsporum canis (strain B68128); experiment: Analogous protocol: comparison compounds (G10, G11) against M. canis in guinea pigs after oral treatment; type: in vivo; set-up: key to semi-quantitative lesion score (mean): lesion score 0–3.5 by severity and size of lesion; settings: oral 50 mg/kg once daily for 7 days
# Description: as §2, §3, §4
# For the sake of comparison, 2 compounds not having the 1,1-difluoroethyl moiety in the R^5 or R^6 position, were tested in an analogous protocol:
# The dorsum of the guinea pigs was shaved and further depilated for 7 minutes with Veet® creme before scarification with a steel brush. An inoculum of 10^6 cfu in 200 μl (100 μl mQ+100 μl honey) was applied to the wound using a micropipette with disposable tips. The animal was kept immobilized until the inoculum had completely dried.
# Vehicle: methocel F4M Premium EP, Tween 80® (polysorbate 80), demineralised water.
# Test compounds: prepared at 30 mg/ml, subsequently further diluted until 6 mg/ml.
# Oral treatment (gavage 0.40 ml/guinea pig once daily) was started about 2 hours before infection and continued once daily for 7 consecutive days.
# Developments of lesions were evaluated following the semi-quantitative lesion scoring system (see Table 6) on days 3, 5, 7, 10, 12, 14, 18 and 21. Reported values in Table 8 are mean values.
compound,measurement,setting,value
"CC(F)(F)c1cccc(C2=NCc3c(Cl)cccc3-n3cccc32)c1 [Compound 14, 7-chloro-4-[3-(1,1-difluoroethyl)phenyl]-6H-pyrrolo[1,2-a][1,4]benzodiazepine]",IC50,[1],37.2 µM
same,IC50,[2],2 µM
same,IC50,[3],1.74 µM
same,semi-quantitative lesion score (mean),"[4]; oral 10 mg/kg once daily for 7 days, 3 DPI",0.33
same,semi-quantitative lesion score (mean),"[4]; oral 10 mg/kg once daily for 7 days, 5 DPI",1.17
same,semi-quantitative lesion score (mean),"[4]; oral 10 mg/kg once daily for 7 days, 7 DPI",2.00
same,semi-quantitative lesion score (mean),"[4]; oral 10 mg/kg once daily for 7 days, 10 DPI",2.17
same,semi-quantitative lesion score (mean),"[4]; oral 10 mg/kg once daily for 7 days, 12 DPI",2.33
same,semi-quantitative lesion score (mean),"[4]; oral 10 mg/kg once daily for 7 days, 14 DPI",2.17
same,semi-quantitative lesion score (mean),"[4]; oral 10 mg/kg once daily for 7 days, 17 DPI",1.67
same,semi-quantitative lesion score (mean),"[4]; oral 10 mg/kg once daily for 7 days, 20 DPI",1.17
same,semi-quantitative lesion score (mean),"[4]; oral 20 mg/kg once daily for 7 days, 3 DPI",0
same,semi-quantitative lesion score (mean),"[4]; oral 20 mg/kg once daily for 7 days, 5 DPI",0.33
same,semi-quantitative lesion score (mean),"[4]; oral 20 mg/kg once daily for 7 days, 7 DPI",0.83
same,semi-quantitative lesion score (mean),"[4]; oral 20 mg/kg once daily for 7 days, 10 DPI",1.67
same,semi-quantitative lesion score (mean),"[4]; oral 20 mg/kg once daily for 7 days, 12 DPI",2.00
same,semi-quantitative lesion score (mean),"[4]; oral 20 mg/kg once daily for 7 days, 14 DPI",1.67
same,semi-quantitative lesion score (mean),"[4]; oral 20 mg/kg once daily for 7 days, 17 DPI",1.50
same,semi-quantitative lesion score (mean),"[4]; oral 20 mg/kg once daily for 7 days, 20 DPI",0.67
same,"activity compared with the terbinafine group (G2, 10 mg/kg)",[4]; oral 40 mg/kg once daily for 7 days,comparable to G2
same,semi-quantitative lesion score (mean),"[4]; oral 40 mg/kg once daily for 7 days, 3 DPI",0
same,semi-quantitative lesion score (mean),"[4]; oral 40 mg/kg once daily for 7 days, 5 DPI",0.17
same,semi-quantitative lesion score (mean),"[4]; oral 40 mg/kg once daily for 7 days, 7 DPI",0.67
same,semi-quantitative lesion score (mean),"[4]; oral 40 mg/kg once daily for 7 days, 10 DPI",1.17
same,semi-quantitative lesion score (mean),"[4]; oral 40 mg/kg once daily for 7 days, 12 DPI",0.83
same,semi-quantitative lesion score (mean),"[4]; oral 40 mg/kg once daily for 7 days, 14 DPI",0.50
same,semi-quantitative lesion score (mean),"[4]; oral 40 mg/kg once daily for 7 days, 17 DPI",0.17
same,semi-quantitative lesion score (mean),"[4]; oral 40 mg/kg once daily for 7 days, 20 DPI",0.17
same,IC50,Microsporum canis B68128,0.525 µM
same,melting point,,106.9 to 109.7 °C
same,IC50,[5],3.02 µM
same,IC50,[6],0.372 µM
same,IC50,[7],0.603 µM
same,IC50,[8],1.32 µM
same,IC50,[9],43.7 µM
same,IC50,[10],> 64.6 µM
same,IC50,Rhizopus oryzae IHEM5223,> 64.6 µM
same,IC50,[11],45.7 µM
"CC(F)(F)c1ccc(C2=NCc3c(F)cc(F)cc3-n3cccc32)cc1F [Compound 33, 4-[4-(1,1-difluoroethyl)-3-fluorophenyl]-7,9-difluoro-6H-pyrrolo[1,2-a][1,4]-benzodiazepine]",IC50,[1],2.63 µM
same,IC50,[2],1.91 µM
same,IC50,[3],0.646 µM
same,IC50,Microsporum canis B68128,1.95 µM
same,melting point,,158.2 to 161.3 °C
same,IC50,[5],13.5 µM
same,IC50,[6],0.724 µM
same,IC50,[7],2.14 µM
same,IC50,[8],10.5 µM
same,IC50,[9],9.33 µM
same,IC50,[10],> 64.6 µM
same,IC50,Rhizopus oryzae IHEM5223,> 64.6 µM
same,IC50,[11],> 64.6 µM
CCc1cccc(C2=NCc3c(Cl)cccc3-n3cccc32)c1 [Compound G10],activity against M. canis (in words),[12],partial activity
same,"activity compared with present compounds 14 and 4 (G7 and G4, both at 40 mg/kg)",[12],less active
same,semi-quantitative lesion score (mean),[12]; 3 DPI,0
same,semi-quantitative lesion score (mean),[12]; 5 DPI,0.5
same,semi-quantitative lesion score (mean),[12]; 7 DPI,1
same,semi-quantitative lesion score (mean),[12]; 10 DPI,1
same,semi-quantitative lesion score (mean),[12]; 12 DPI,2
same,semi-quantitative lesion score (mean),[12]; 14 DPI,1
same,semi-quantitative lesion score (mean),[12]; 18 DPI,1
same,semi-quantitative lesion score (mean),[12]; 21 DPI,0.5
CCc1ccc(C2=NCc3c(Cl)cccc3-n3cccc32)cc1 [Compound G11],activity against M. canis (in words),[12],partial activity
same,"activity compared with present compounds 14 and 4 (G7 and G4, both at 40 mg/kg)",[12],less active
same,semi-quantitative lesion score (mean),[12]; 3 DPI,0
same,semi-quantitative lesion score (mean),[12]; 5 DPI,0
same,semi-quantitative lesion score (mean),[12]; 7 DPI,0.5
same,semi-quantitative lesion score (mean),[12]; 10 DPI,0.5
same,semi-quantitative lesion score (mean),[12]; 12 DPI,0.5
same,semi-quantitative lesion score (mean),[12]; 14 DPI,1
same,semi-quantitative lesion score (mean),[12]; 18 DPI,0.5
same,semi-quantitative lesion score (mean),[12]; 21 DPI,0.5
